≈ marks a conversion by molar mass, not a printed value. Residues, ends and D or L forms follow the SMILES beside them. *: point of attachment. Palmitoyl = CCCCCCCCCCCCCCCC(=O)*
What was measured:
[1] = test system: MRSA; format: cell-based, methicillin-resistant S. aureus (MRSA, ATCC #43300); conditions: 24 h
Description: (§1) This assay was performed to investigate the inhibitory effects of each peptide against Gram-positive Staphylococcus aureus (S. aureus, ATCC #25923) and methicillin-resistant S. aureus (MRSA, ATCC #43300), as well as Gram-negative Escherichia coli (E. coli, ATCC #25922), and multidrug-resistant E. coli (MDR E. coli, ATCC #BAA-2471). In all experiments, solutions of each peptide at the concentrations from 20 μM to 100 μM in 3% Tryptic Soy Broth (TSB) media were freshly prepared. A single colony of bacteria was isolated from a stock agar plate and cultured overnight in 4 mL of 3% TSB on a shaking incubator set at 200 rpm and 37° C. […] The bacteria were incubated inside a spectrophotometer (Spectra-Max Paradigm, Molecular Devices, Sunnyvale, CA) at 37° C. under static conditions for 20 h, and the bacterial growth curves were measured in terms of turbidity at OD562 every 2 minutes. The normalized OD562 values of samples were calculated by subtracting the […].
(§2) The minimum inhibitory concentration (MIC) of ACA-PA was tested against drug-resistant bacteria and compared with conventional penicillin-streptomycin (10,000 U/mL, Thermo Fisher Scientific, Waltham, MA, USA) as well. […] The OD562 was measured at the end of treatment. […]

[2] = test system: MRSA; assay: Bacterial membrane disruption by TEM of ultrathin sections; format: cell-based, methicillin-resistant S. aureus (MRSA); conditions: 4 h
Description: (§3) TEM was used to reveal the damage in bacterial cell envelopes caused by ACA-PA treatment. Drug-resistant bacterial strains (MRSA and MDR E. coli) were exposed to ACA-PA at concentrations below (40 μM) and above (80 μM) the CMC, and ultrathin sections of the bacterial cultures were visualized by TEM.
(§4) The ACA-PA at a concentration lower than CMC seemed to only influenced the outer bacteria membrane, but were inadequate to disrupt the inner bacteria membranes.
(§5) Bacterial membrane disruption was observed from the ultrathin sectioned sample using TEM. […] After treatment with 80 μM ACA nanorods, bacterial cell membranes were severely damaged with complete cytoplasm leakage. […] On the damaged membranes, blisters appeared to originate from the pores. This explains the reason for the different antibacterial activity of ACA-PA on Gram-negative bacteria compared to the concentration-dependent toxicity on Gram-positive bacteria. The cell envelope of Gram-positive has a cytoplasmic membrane surrounded by a thick peptidoglycan layer with lipoteichoic acid. The antibacterial ACA-PA could penetrate the Gram-positive bacterial membrane by charge and hydrophobicity, although the PA were in a dispersed, non-assembled form. However, such dispersed PA were not able to penetrate the outer membrane of Gram-negative bacteria. […]

[3] = test system: MRSA; assay: Live/dead bacterial viability assay; format: cell-based, methicillin-resistant S. aureus (MRSA); conditions: 4 h
Description: To further investigate bacteria viability after treatment with ACA-PA, the live/dead assay was used to confirm the antibacterial actions of ACA-PA. Dead bacteria with disrupted membrane were stained a first color, whereas live bacteria were stained with a second color fluorescence. A large amount of robust MRSA bacteria in the untreated control sample appeared a second color and in spherical shapes (FIG. 10A). […] This antibacterial activity was dependent on the concentration of PA, yet was not determined by peptide self-assembly. Nonetheless, Gram-negative MDR E. coli responded to the treatment of ACA-PA differently from Gram-positive MRSA.
The live/dead bacterial viability assay was conducted to further assess the bactericidal efficacy of ACA-PA using the LIVE/DEAD BacLight Bacterial Viability Kits (Kits 71007, Molecular Probes, Eugene, OR, USA). MRSA and MDR E. coli bacteria (100 μl, 10^6 CFU/mL) were incubated with 80 μM and 40 μM of peptide in 3% TSB media at 37° C. for 4 h on a 96-well plate, and the control samples of bacteria were incubated in 3% TSB media only. […] The live bacteria stained fluorescent a second color (SYTO9 nucleic acid stain), whereas the dead bacteria with disrupted membranes stained fluorescent a first color (propidium iodide, PI).

[4] = test system: MDR E. coli; assay: Bacterial membrane disruption by TEM of ultrathin sections; format: cell-based, multidrug-resistant E. coli (MDR E. coli); conditions: 4 h
Description: as §3, §4, §5

[5] = test system: MDR E. coli; format: cell-based, multidrug-resistant E. coli (MDR E. coli, ATCC #BAA-2471); conditions: 24 h
Description: as §1, §2

CCCCCCCCCCCCCCCC(=O)N[C@H](C(=O)N[C@H](C(=O)N[C@H](C(=O)N[C@H](C(=O)N[C@@H](CCCCN)C(=O)N[C@@H](CCCCN)C(=O)N[C@@H](CCCCN)C(=O)N[C@@H](CCCCN)C(=O)NCC(=O)N[C@@H](C)C(=O)N[C@@H](CCCCN)C(=O)N[C@@H](CCCCN)C(=O)N[C@@H](C)C(=O)N[C@@H](CCCNC(=N)N)C(=O)N[C@@H](C)C(=O)N[C@@H](C)C(=O)N[C@@H](CCCCN)C(=O)N[C@@H](CCCCN)C(=O)N[C@@H](C)C(=O)N[C@@H](CCCNC(=N)N)C(=O)N[C@@H](C)C(=O)O)C(C)C)C(C)C)C(C)C)C(C)C [ACA-PA, C16-V4K4G(AKKARA)2 (SEQ ID NO: 7)] (Palmitoyl-VVVVKKKKGAKKARAAKKARA-OH; N-terminus and C-terminus assumed)
Minimum inhibitory concentration (MIC) [1]: 300 µg/mL (≈ 121 µM)
bacterial membrane disruption (TEM) ([2]; 40 μM): partially damaged
bacterial membrane disruption (TEM) ([2]; 80 μM): localized disruption on the cell membrane and complete leakage of the cytoplasm
bacterial viability (live/dead staining) ([3]; 40 μM): markedly reduced MRSA viability
bacterial viability (live/dead staining) ([3]; 80 μM): coverage of dead bacteria increased with low density of live bacteria
bacterial membrane disruption (TEM) ([4]; 40 μM): blisters only on the outer cell walls
bacterial membrane disruption (TEM) ([4]; 80 μM): disrupted bacteria envelopes with loosened and disconnected membranous structures
Minimum inhibitory concentration (MIC) [5]: 400 µg/mL (≈ 162 µM)
